One assay concerns HEK-293T cells. Put plainly: CellTiter-Glo viability assay, WT HEK-293T. The format is cell-based. The following applies: Homo sapiens, 72 hours, read-out: EC50 cell viability. From the text: (§1) MDA-MB-231 (human triple-negative breast cancer cells) and HEK293T (human embryonic kidney cells) were purchased from the American type culture collection (ATCC) and maintained in Dulbecco's modified Eagle's medium (DMEM) (Gibco) supplemented with 10% (v/v) heat-inactivated fetal bovine serum (FBS) (Gibco) and penicillin/streptomycin (100 U mL^−1 each). HiBiT-CCNK KI A549 cells, purchased from Promega, were maintained in F12 medium supplemented with 10% (v/v) heat-inactivated fetal bovine serum (FBS) (Gibco) and penicillin/streptomycin (100 U mL^−1 each). DDB1-knockdown MDA-MB-231 and DDB1-knockdown HEK293T cell lines were maintained in the same media formulation as their corresponding wild-type cell lines. All cell lines were cultured at 37 °C in an incubator with CO2 levels maintained at 5%.
(§2) Cell viability was measured by Cell Titer Glo assay kit (Promega, USA). EC50 was determined from the nonlinear regression and a four-parameter algorithm on the GraphPad Prism software.
In general terms: ATP-based viability assays read luminescence as a measure of living cells.

A further assay concerns the target T1, Cdk12/CycK and DDB1ΔB (Homo sapiens, UniProt Q16531+Q9NYV4, DEL396-705).
T1 construct: the Cdk12 (714–1063)/CycK (1–267) complex and the DDB1ΔB protein; made in house; host or cells: Sf9 insect cells (MultiBacTurbo)
In words: GST pulldown assay, recruitment of DDB1ΔB to Cdk12/CycK. The format is binding. The following applies: GST-Cdk12/GST-CycK bait, 5 μM compound, vs DMSO. The protocol:
The pulldown assay was utilized to identify drug-triggered protein–protein interactions involving the Cdk12 (714–1063)/CycK (1–267) complex and the DDB1ΔB protein. In this assay, purified GST-tagged Cdk12 construct complexed with GST-CycK was combined with equimolar amounts of His6-tagged DDB1ΔB (5 μM) in the presence of 5 μM of the respective small molecular compound in pulldown assay buffer (50 mM Hepes pH 7.4, 200 mM NaCl, 0.25 mM TCEP, 0.05% (v/v) Tween20), ensuring a 2% total DMSO concentration. Experimental controls included samples supplemented with 2% DMSO instead of compound as well as samples devoid of the GST-tagged Cdk12/CycK complex. Each sample was individually added to approximately 50 μL of pre-equilibrated glutathione agarose beads (Thermo Fisher Scientific). The bead suspensions were then subjected to a 2 h incubation period at room temperature with gentle agitation. After incubation, the beads were pelleted by centrifugation at 700 × g for 4 min, the supernatant was discarded, and the beads were washed three-times with 100 μL of pulldown assay buffer. Following the washing step, bound proteins were eluted from the beads with 50 μL of pulldown assay buffer supplemented with 10 mM GSH for 1 h at room temperature under rotation. Subsequently, the beads were again pelleted by centrifugation at 700 × g for 4 min and the resulting supernatants containing eluted protein fractions were mixed with 6 × SDS sample buffer at a 1 : 1 (v/v) ratio. The eluted protein samples were separated by SDS-PAGE and subjected to Coomassie brilliant blue staining for visualization and analysis.

The test system of another assay is HiBiT-tagged cyclin K. Put plainly: HiBiT cyclin K degradation assay (DC50, Dmax). In kind it is cell-based. The following applies: HiBiT-CCNK KI A549 cells, 2 hours. The procedure: Next, we utilized HiBiT technology (Promega) for quantitative analysis of cyclin K degrader activity. […] Importantly, knockout of CDK12 using CRISPR/Cas9 protected cyclin K from SR-4835-induced degradation (Fig. 1D). We verified the depletion of CDK12 in HEK-293T cells (Fig. S3, ESI ^†).
The HiBiT-CCNK KI A549 cells (Promega) were seeded in 384 well plate and treated with the test compounds for 2 hours in a dose dependent manner. Nano-Glo® HiBiT Lytic Detection System (Promega) composed of the Nano-Glo® HiBiT Lytic Substrate, Nano-Glo® HiBiT Lytic Buffer and LgBiT Protein was used as per the manufacturer's instructions. Briefly, a 2× Nano-Glo® HiBiT Lytic Detection Reagent mixture was prepared by adding 20 μL of Nano-Glo® HiBiT Lytic Substrate and 10 μL of LgBiT protein per every 1 mL of Nano-Glo® HiBiT Lytic Buffer. After incubating the cells with the 2× Nano-Glo® HiBiT Lytic Detection Reagent mixture, luminescence was measured. HiBiT tagged cyclin K present at any given concentration was measured by normalizing the luminescence signal at that concentration to the luminescence signal from the DMSO (control) cells. The concentration necessary to achieve a 50% reduction in cyclin K levels (DC50) and the maximum achievable reduction in cyclin K levels (Dmax) was computed from this assay.
For orientation: The HiBiT peptide binds its large partner to form an active luciferase.

For assay [1], the system named is MDA-MB-231DDB1-shRNA cells. Put plainly: CellTiter-Glo viability assay, MDA-MB-231 DDB1-shRNA. The format is cell-based, human. Conditions: for EC50: Homo sapiens, MDA-MB-231 DDB1 shRNA, 72 hours, CellTiter-Glo, read-out: EC50 cell viability.
Text: For stable genetic knock-down of DDB1 in cells, predesigned and validated TRC2-pLKO-puro shRNA plasmids for DDB1 (TRCN0000082855 and TRCN0000082856), and a non-targeting shRNA plasmid (SHC001) were obtained from Millipore Sigma. All plasmids were purified using the Qiagen Maxiprep kit (Qiagen). FuGENE HD 6 transfection reagent (Promega) was used for transfection of plasmids and lentiviral gene/shRNA constructs. Mission lentiviral packaging mix (Millipore Sigma) was used to package lentiviral plasmids into lentiviral particles in HEK293T cells, as per manufacturer's protocols. The resultant virus was concentrated using Vivaspin 20 centrifugal concentrators (Sartorius). MDA-MB-231 and HEK293T cells were transduced with lentivirus. Stable knocked down DDB1 (shDDB1-231 and shDDB1-HEK293T) cells were generated after selection with the antibiotic puromycin, and genetic knockdown was confirmed by western blotting.
as §2

Another assay has as its system MDA-MB-231 cells. Put plainly: CellTiter-Glo viability assay, WT MDA-MB-231. In kind it is cell-based. The following applies: Homo sapiens; WT MDA-MB-231, 72 hours, CellTiter-Glo; read-out: EC50 cell viability.
Text: as §1, §2

T1 sequence (Q9NYV4 714-1063, stated change not applied): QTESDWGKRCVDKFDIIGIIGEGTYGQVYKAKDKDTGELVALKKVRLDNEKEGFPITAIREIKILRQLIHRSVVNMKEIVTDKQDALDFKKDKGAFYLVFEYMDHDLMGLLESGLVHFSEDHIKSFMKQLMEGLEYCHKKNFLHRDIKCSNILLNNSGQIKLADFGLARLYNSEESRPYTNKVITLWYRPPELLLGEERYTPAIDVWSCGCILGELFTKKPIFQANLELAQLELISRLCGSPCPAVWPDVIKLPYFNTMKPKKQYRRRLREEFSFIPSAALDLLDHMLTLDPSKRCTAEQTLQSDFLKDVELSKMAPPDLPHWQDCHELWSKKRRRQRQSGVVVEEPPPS
T1 sequence (O75909 1-267 partner limits assumed): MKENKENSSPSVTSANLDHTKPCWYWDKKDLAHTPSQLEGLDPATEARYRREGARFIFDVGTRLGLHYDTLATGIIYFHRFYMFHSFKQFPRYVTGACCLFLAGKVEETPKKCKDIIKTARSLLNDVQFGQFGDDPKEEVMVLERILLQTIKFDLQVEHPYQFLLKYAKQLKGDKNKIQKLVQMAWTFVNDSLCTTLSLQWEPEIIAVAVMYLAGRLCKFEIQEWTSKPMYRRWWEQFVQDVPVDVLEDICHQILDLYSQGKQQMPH
T1 sequence (Q16531 with tags, fused parts or gaps DEL396-705): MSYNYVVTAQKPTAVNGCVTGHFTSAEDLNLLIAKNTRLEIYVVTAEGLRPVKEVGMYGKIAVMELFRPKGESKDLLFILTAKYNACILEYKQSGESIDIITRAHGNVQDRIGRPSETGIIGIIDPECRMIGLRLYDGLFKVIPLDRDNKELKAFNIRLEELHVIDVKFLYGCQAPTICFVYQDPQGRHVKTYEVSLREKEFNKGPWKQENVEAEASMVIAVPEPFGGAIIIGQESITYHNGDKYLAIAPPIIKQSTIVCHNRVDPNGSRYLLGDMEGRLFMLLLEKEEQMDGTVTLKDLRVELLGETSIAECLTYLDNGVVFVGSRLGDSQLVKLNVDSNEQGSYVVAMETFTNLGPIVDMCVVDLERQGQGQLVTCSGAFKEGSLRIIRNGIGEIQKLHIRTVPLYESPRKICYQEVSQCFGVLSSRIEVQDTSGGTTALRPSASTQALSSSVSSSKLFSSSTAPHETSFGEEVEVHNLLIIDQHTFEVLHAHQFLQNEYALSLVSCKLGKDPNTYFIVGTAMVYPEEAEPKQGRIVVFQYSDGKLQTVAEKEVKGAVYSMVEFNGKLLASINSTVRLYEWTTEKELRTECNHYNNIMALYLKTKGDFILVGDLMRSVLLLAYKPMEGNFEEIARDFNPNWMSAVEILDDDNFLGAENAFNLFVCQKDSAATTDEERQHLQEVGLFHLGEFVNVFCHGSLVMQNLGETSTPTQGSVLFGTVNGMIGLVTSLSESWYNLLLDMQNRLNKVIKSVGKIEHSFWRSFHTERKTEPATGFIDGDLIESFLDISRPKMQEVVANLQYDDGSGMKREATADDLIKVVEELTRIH

In general, EC50 refers to the midpoint of the concentration-response curve. `Cn1cc(-n2cnc3c(NCc4nc5cc(Cl)c(Cl)cc5[nH]4)nc(N4CCOCC4)nc32)cn1` [SR-4835]: the EC50 with HEK-293T cells turned out to be 188 nM; in assay [1] it was 218 nM; in the assay with MDA-MB-231 cells, 55 nM. For the same compound, the “recruitment of DDB1ΔB in pulldown” value on Cdk12/CycK and DDB1ΔB is reported as “enrichment of DDB1ΔB fractions”. Besides, the “Dmax (maximum reduction in cyclin K levels)” value in the assay with HiBiT-tagged cyclin K (vs DMSO) was > 95%. The DC50 in the assay with HiBiT-tagged cyclin K (read-out: DC50 (concentration for 50% reduction in cyclin K levels)) was ~90 nM.

For the compound `CN(C)C/C=C/C(=O)Nc1ccc(C(=O)N2CCC[C@@H](Nc3ncc(Cl)c(-c4c[nH]c5ccccc45)n3)C2)cc1` [THZ531, reference compound], the figures for the EC50 (in the assay on HEK-293T cells; in assay [1]; with MDA-MB-231 cells) were 128 nM, 65 nM and 72 nM, respectively. For the same compound, the “recruitment of DDB1ΔB in pulldown” value on Cdk12/CycK and DDB1ΔB is on record as “incapable of recruiting the DDB1ΔB protein”. Further, the “reduction in cyclin K levels” value in the assay with HiBiT-tagged cyclin K (dose-response) is given as “no reduction in cyclin K levels”. For the same compound, the “fold change of EC50 (DDB1 shRNA vs WT)” value in assay [1] (MDA-MB-231 DDB1 shRNA vs WT MDA-MB-231, 72 hours) was found to be 0.9.

The values are drawn from article PMC11494886, “Discovery and design of molecular glue enhancers of CDK12–DDB1 interactions for targeted degradation of cyclin K” (RSC Chemical Biology, 2024).
